Columns and labels:
[1] = test system: paclitaxel-induced central sensitization in C57/BL/6J mice; assay: Cold allodynia (acetone test), paclitaxel model (Example 3); assay type: in vivo, mouse; conditions: PS 5% for 15 days; day 15
Procedure: To determine the outcome of treatment, assessment of mechanical allodynia was performed. […] Both methods of assessing allodynia are described in Toma W, et al. Neuropharmacology 2017; 117:305-15. Mechanical and cold allodynia are determined at least one day apart in the same animal.
The acetone test was used. Briefly, acetone was applied onto the plantar surface of each hind paw. The time each mouse spent licking, lifting, and/or shaking the hind paw recorded over 60 seconds was the score for cold allodynia. Measurements were performed on day-8 (before the first paclitaxel injection), the day of starting treatment (day 0) and then on day 15.

[2] = test system: oxaliplatin-induced pain associated with central sensitization in C57BL/6J mice; assay: Mechanical allodynia (von Frey), oxaliplatin-induced pain, topical PS 8% (Example 2); assay type: in vivo, mouse
Text: Food and water were available ad libitum.
Protocol for the Treatment of Established Pain Associated with Central Sensitization with PS
Paw withdrawn, licking or shaking were considered positive responses.

[3] = Preliminary in vivo evidence, topical PS hydrogel, migraine pain (Example 12)
[4] = test system: chronic constriction injury-induced PTPN in C57BL/6J mice; assay: PWT of operated limb, PS applied to contralateral hind paw, PTPN model (Example 8); assay type: in vivo, mouse
Procedure: Group 2: vehicle control (n=6) • 3. Group 3: PS 8% (n=6)
The PWT test was performed on day 4.
Additionally, in a second study, the speed at which PS can treat pain associated with PTPN was assessed by assessing the effect of PS on mechanical allodynia shortly after topical administration of PS. As above, PTPN was induced using chronic constriction injury, by ligating the left sciatic nerve, to induce neuropathic pain manifested as allodynia affecting the left limb of the mice. PS (as a 5% gel) was applied only once onto the contralateral (right) hind paw of mice, prior to determining mechanical allodynia on the operated limb at different time points post-dosing.
Group 2: PS 5%, assessed at t=0.5 h post-dosing (n=5) • 3. Group 3: PS 5%, assessed at t=1.0 h post-dosing (n=5) • 4. Group 4: PS 5%, assessed at t=2.0 h post-dosing (n=5)

CCOP(=O)(OCC)OCCCCOC(=O)CC1=C(C)/C(=C/c2ccc([S+](C)[O-])cc2)c2ccc(F)cc21 (centres unmarked) [PS, phosphosulindac]
cold allodynia score (acetone test) [1]: 3.1 ± 0.4 s | mechanical allodynia score, mean±SEM ([2]; after PS treatment (day 22), PS 8% ointment 3x/day): 1.8 ± 0.09 g | mechanical allodynia score, mean±SEM ([2]; day -15 baseline of PS group): 1.76 ± 0.13 g | analgesic effect on migraine pain [3]: striking analgesic effect | PWT, g Mean ± SEM ([4]; day 4, operated left limb, PS 8% gel on contralateral (right) hind paw 3 times a day for 4 days): 1.16 ± 0.04 g | PWT, g Mean ± SEM ([4]; t = 0.5 h post-dosing, PS 5% gel applied once on contralateral hind paw): 1.24 ± 0.10 g | PWT, g Mean ± SEM ([4]; t = 1.0 h post-dosing, PS 5% gel applied once on contralateral hind paw): 1.16 ± 0.16 g | PWT, g Mean ± SEM ([4]; t = 2.0 h post-dosing, PS 5% gel applied once on contralateral hind paw): 1.10 ± 0.19 g
